In patent US20200197409A1, “HEPATITIS B VIRUS SURFACE ANTIGEN INHIBITOR” (FUJIAN COSUNTER PHARMACEUTICAL CO., LTD., priority 2017, published 2020):
pEC50: −log10 of the molar value.

Tests used:
HBV-DNA = experiment: HBV DNA content in HepG2.2.15 cells culture supernatant by real time-qPCR; type: cell-based; settings: supernatant on the 8th day
Protocol: (§1) 2.1 Cell Line: HepG2.2.15 Cells
3.6 15 μL of the reaction mixture was added into each well of a 96-well PCR plate, followed by addition of 10 μL of sample DNA or HBV DNA standards into each well.
3.7 PCR reaction conditions: heating at 95° C. for 10 minutes, then denaturation at 95° C. for 15 seconds, extension at 60° C. for 1 minute, a total of 40 cycles.

HBsAg = settings: read-out: HBsAg EC50; HepG2.2.15 cells, supernatant on the 8th day
Protocol: The HBV DNA content in HepG2.2.15 cells culture supernatant was determined by real-time quantitative qPCR assay (real time-qPCR), and the HBV surface antigen content was determined by enzyme linked immunosorbent assay (ELISA). The inhibitory effect of the compound on HBV was evaluated by the EC50 value of the compound.
as §1
3.1 HepG2.2.15 cells (4×10^4 cells/well) were seeded into a 96-well plate and incubated overnight at 37° C. under 5% CO2.
3.2 On the 2nd day, the compound was diluted into 8 concentrations with 3-fold gradient. The compounds with different concentrations were added into the culture wells in duplicate wells. The final concentration of DMSO in the culture medium was 0.5%, 10 μM ETV was used as a 100%/inhibition control, and 0.5% DMSO was used as a 0% inhibition control.
3.3 On the 5th day, the culture medium was replaced with a fresh medium containing the compound.
3.4 On the 8th day, the culture medium in the culture well was collected, and a part of the sample was taken for ELISA to determine the content of hepatitis B virus S antigen, a part of the sample was taken to extract DNA with a high-throughput DNA purification kit (Qiagen-51162).
3.8 Determination of hepatitis B virus S antigen content by ELISA
50 μL of sample and standard sample were taken and added into a reaction plate respectively, followed by addition of 50 μL of enzyme conjugate into each well, the mixture was shaken and well-mixed, and placed in a bath at 37° C. for 60 minutes. The plate was then washed with washing solution 5 times, followed by addition of 50 μL of illuminating substrate into each well, the mixture was well-mixed and allowed to react at room temperature for 10 minutes in the dark. Chemiluminescence intensity was determined by a ELISA.
Calculation of the percentage of inhibition:% Inh.=(1−value of sample/value of DMSO control)×100
Calculation of EC50: The 50% inhibitory concentration (EC50) value of the compound on HBV was calculated by GraphPad Prism software.

HBV [1] = experiment: Anti-HBV activity on the hepatitis B virus mouse model (AAV-HBV); type: in vivo, C57BL/6 mice; settings: 1 mg/kg, PO, QD
Protocol: The AAV vector-mediated HBV infected mouse model is a fast and efficient HBV model. Using the high hepatotropism of the AAV vector, the recombinant adeno-associated type 8 virus carrying 1.3 copies of the HBV genome (rAAV8-1.3HBV) is injected into the tail vein of mice, which can efficiently introduce the carried 1.3 copy HBV genome into hepatocytes. Due to the characteristics of the AAV viral vector, the vector mediated by it can express for a long time. The AAV/HBV model can continuously replicate HBV DNA and express HBsAg and HBeAg in the liver of the mice.
The anti-HBV efficacy of the test compound in vivo was evaluated by determining the content of HBsAg in the serum of the mice after treatment with the test compound on AAV/HBV mouse mode.
C57BL/6 mice, 10% HP-f-CD as vehicle, reference compound TDF (Tenofovir), test compound, recombinant virus rAAVS-1.3HBV, main reagents of the experiment including QIAamp96 DNA kit and TaqMan® Universal PCR Master Mix, Hepatitis B Virus Surface Antigen Detection Kit, instruments including: centrifuge (Beckman Allegra X-15R), tissue grinder (QIAGEN-Tissue lyser II) and spectrophotometer (Thermo-NANODROP 1000).
a) All mice were orally administered on the 28th day after the virus injection, and the day was set as day 0. Submaxillary blood of all mice was collected for serum collection before administration. The mice were administered once a day for four weeks.
b) Submaxillary blood of all mice was collected for serum collection twice a week, the volume of the blood collected each time was approximately 100 μL.
c) On the 28th day, all mice were euthanized and the blood was collected from the heart for serum collection.
The content of HBsAg in the serum of the mice was determined by ELISA. The experimental procedure refers to the specification of HBsAg ELISA kit.
a) The anti-HBV activity of the test compound on AAV/HBV mice model was evaluated by determining the content of HBsAg in the plasma of the mice.

HBV [2] = experiment: In vivo pharmacodynamic study of hydrodynamic injection mouse HBV model (HDI-HBV) via tail vein; set-up: species or system Balb/c mice; settings: mouse plasma
Protocol: Anti-hepatitis B virus activity of the compound of the embodiment in vivo was evaluated by HDI mice model.
Balb/c mice, 10% HP—F-CD as vehicle, test compound, RG7834, ETV (Entecavir), pAAV2-HBV 1.3mer plasmid (extracted with Qiagen EndoFree Plasmid Giga kit), main reagents including QIAamp96 DNA kit and FasStart Universal Probe Mast (ROX). The main instruments used in this experiment included centrifuge (Beckman Allegra X-15R), tissue grinder (QIAGEN-Tissue lyser II) and spectrophotometer (Thermo-NANODROP 1000).
b) On day 0, all mice were subjected to hydrodynamic injection with HBV plasmid DNA solution via tail vein. The plasmid DNA was pre-treated with sterile physiological saline before injection and stored at 4° C. until use. Plasmid DNA solution was injected via the tail vein at a dose of 8% of the body weight of the mouse within 5 seconds.
c) On the 1st day to the 7th day, the mice were administered with the compound or solvent by oral gavage for 7 days.
d) On the 1st day, 3rd day and 5th day, the blood was collected from the submandibular vein of the mice, and heparin sodium was used as an anticoagulant. The blood sample was centrifuged at 7,000×g, 4° C. to prepare the plasma for the determination of HBV DNA.
e) On the 7^h day, all mice were euthanized by CO2. The blood was collected from the heart to prepare plasma, and the liver tissue was collected. Two left hepatic lobe were isolated, the size of which was 70-100 mg, and were frozen by liquid nitrogen immediately after collection. One of the hepatic lobe was used for HBV DNA detection, and the other was used for backup.
The content of HBsAg in the serum of the mice was determined by ELISA (enzyme linked immunosorbent assay). The experimental procedure refers to the specification of HBsAg ELISA kit.
The inhibitory activity of the test compound on HBV replication on the mouse HDI model was determined by measuring the content of HBsAg in the plasma of the mice.

Compound	pEC50 (HBV-DNA)	pEC50 (HBsAg)	further results
COCCCCOc1cc2c(cc1Cl)-c1cc(=O)c(C(=O)O)cn1[C@H](C(C)C)CO2 [Embodiment 19]	7.93	8.09	
CC(C)[C@@H]1COc2cc(OCCOCC(F)(F)F)c(Cl)cc2-c2cc(=O)c(C(=O)O)cn21 [Embodiment 13]	7.62	7.36	
CC(C)[C@@H]1COc2cc(OCCCOC(F)(F)F)c(Cl)cc2-c2cc(=O)c(C(=O)O)cn21 [Embodiment 21]	7.63	7.59	
COCCCOc1cc2c(cc1C)-c1cc(=O)c(C(=O)O)cn1[C@H](C(C)(C)C)CO2 [Embodiment 27]	8.96	8.60	
COCCCOc1cc2c(cc1C1CC1)-c1cc(=O)c(C(=O)O)cn1[C@H](C(C)(C)C)CO2 [Embodiment 28]	9.29	9.14	
CC[C@@H]1COc2cc(OCCCOC)c(Cl)cc2-c2cc(=O)c(C(=O)O)cn21 [Embodiment 1]	7.35	7.33	
CSCCOc1cc2c(cc1Cl)-c1cc(=O)c(C(=O)O)cn1[C@H](C(C)C)CO2 [Embodiment 8]	7.65	7.74	
COCCCOc1cc2c(cc1Cl)-c1cc(=O)c(C(=O)O)cn1[C@H](C1CCCC1)CO2 [Embodiment 4]	7.95	7.18	
CC(C)OC(=O)OCOP(=O)(CO[C@H](C)Cn1cnc2c(N)ncnc21)OCOC(=O)OC(C)C.O=C(O)/C=C/C(=O)O [TDF, reference compound]			HBsAg content in the plasma of the mice (HBV [1]; day 4): 4.56 IU/mL; HBsAg content in the plasma of the mice (HBV [1]; day 7): 4.59 IU/mL; HBsAg content in the plasma of the mice (HBV [1]; day 11): 4.66 IU/mL; HBsAg content in the plasma of the mice (HBV [1]; day 14): 4.50 IU/mL; HBsAg content in the plasma of the mice (HBV [1]; day 18): 4.61 IU/mL; HBsAg content in the plasma of the mice (HBV [1]; day 21): 4.52 IU/mL; HBsAg content in the plasma of the mice (HBV [1]; day 25): 4.33 IU/mL; HBsAg content in the plasma of the mice (HBV [1]; day 28): 4.34 IU/mL; HBsAg content in the plasma of the mice (HBV [1]; day −1): 4.59 IU/mL
COCCCOc1cc2c(cc1Cl)-c1cc(=O)c(C(=O)O)cn1[C@H](C(C)C)CO2 [Embodiment 2]	8.06	8.18	
COCCCOc1cc2c(cc1C#N)-c1cc(=O)c(C(=O)O)cn1[C@H](C(C)C)CO2 [Embodiment 26]	8.66	8.48	
CCN(CC)C(=O)CCCOc1cc2c(cc1Cl)-c1cc(=O)c(C(=O)O)cn1[C@H](C(C)C)CO2 [Embodiment 12]	7.72	7.59	
CC(C)[C@@H]1COc2cc(OCCCN3CCOC3=O)c(Cl)cc2-c2cc(=O)c(C(=O)O)cn21 [Embodiment 20]	7.35	7.38	
COc1cc2c(cc1Cl)-c1cc(=O)c(C(=O)O)cn1[C@H](C(C)C)CO2 [Embodiment 14]	7.63	7.64	
CNC(=O)OCCCOc1cc2c(cc1Cl)-c1cc(=O)c(C(=O)O)cn1[C@H](C(C)C)CO2 [Embodiment 11]	7.85	7.81	
COCCCOc1cc2c(cc1Cl)-c1cc(=O)c(C(=O)O)cn1[C@H](C1CC1)CO2 [Embodiment 3]	6.98	7.18	
COC(=O)NCCCOc1cc2c(cc1Cl)-c1cc(=O)c(C(=O)O)cn1[C@H](C(C)C)CO2 [Embodiment 23]	7.62	7.47	
CC(C)COc1cc2c(cc1Cl)-c1cc(=O)c(C(=O)O)cn1[C@H](C(C)C)CO2 [Embodiment 16]	7.94	8.01	
C=C1[C@H](CO)[C@@H](O)C[C@@H]1n1cnc2c(=O)[nH]c(N)nc21 [Entecavir]			Log HBsAg (IU/mL) (Ave. value) (HBV [2]; dosing time day 1, 0.1 mg/kg QD gavage): 3.66 IU/mL; Log HBsAg (IU/mL) (Ave. value) (HBV [2]; dosing time day 3, 0.1 mg/kg QD gavage): 4.32 IU/mL; Log HBsAg (IU/mL) (Ave. value) (HBV [2]; dosing time day 5, 0.1 mg/kg QD gavage): 4.01 IU/mL; Log HBsAg (IU/mL) (Ave. value) (HBV [2]; dosing time day 7, 0.1 mg/kg QD gavage): 2.46 IU/mL
CCSCCOc1cc2c(cc1Cl)-c1cc(=O)c(C(=O)O)cn1[C@H](C(C)C)CO2 [Embodiment 7]	7.45	7.22	
CC(C)[C@@H]1COc2cc(OCC3CCOCC3)c(Cl)cc2-c2cc(=O)c(C(=O)O)cn21 [Embodiment 17]	8.32	8.30	
CC(C)[C@@H]1COc2cc(OCCCSCC(=O)O)c(Cl)cc2-c2cc(=O)c(C(=O)O)cn21 [Embodiment 9]	7.79	7.65	
CO/N=C/CCOc1cc2c(cc1Cl)-c1cc(=O)c(C(=O)O)cn1[C@H](C(C)C)CO2 [Embodiment 10]	8.44	8.30	
COCCCOc1cc2c(cc1Br)-c1cc(=O)c(C(=O)O)cn1[C@H](C(C)(C)C)CO2 [Embodiment 25]	> 9.34	9.11	
CC[C@@H](C)C1COc2cc(OCCCOC)c(Cl)cc2-c2cc(=O)c(C(=O)O)cn21 (stereo partly drawn) [Embodiment 5]	7.67	7.54	
COCCOc1cc2c(cc1Cl)-c1cc(=O)c(C(=O)O)cn1[C@H](C(C)C)CO2 [Embodiment 18]	7.46	7.46	
COCCCOc1cc2c(cc1C(C)=O)-c1cc(=O)c(C(=O)O)cn1[C@H](C(C)C)CO2 [Embodiment 29]	9.29	8.87	
CC(=O)CCCOc1cc2c(cc1Cl)-c1cc(=O)c(C(=O)O)cn1[C@H](C(C)C)CO2 [Embodiment 22]	7.95	7.94	
COCCCOc1cc2c(cc1Cl)-c1cc(=O)c(C(=O)O)cn1[C@H](C(C)(C)C)CO2 [Embodiment 24]	9.34	9.13	
CC(C)[C@@H]1COc2cc(OCC3CC3)c(Cl)cc2-c2cc(=O)c(C(=O)O)cn21 [Embodiment 15]	8.06	7.98	
